The record followed here is patent publication US20150374709A1, “TETRA-SUBSTITUTED NDGA DERIVATIVES VIA ETHER BONDS AND CARBAMATE BONDS AND THEIR SYNTHESIS AND PHARMACEUTICAL USE” (ERIMOS PHARMACEUTICALS LLC, priority 2006, published 2015).

Molecules are shown by their SMILES.

The subject of series [1] is CNS cell lines. The experiment in a line: NCI DTP human tumor cell line screen, CNS panel. It counts as cell-based. Particulars: CNS (6 cell lines). An excerpt: (§1) The United States National Cancer Institute (NCI) provides a developmental therapeutics program (DTP) (http://dtp.nci.nih.gov/branches/btb/ivelsp.html) to screen submitted substances in support of cancer drug discovery. The In Vitro Cell Line Screening Project (IVCLSP) is a dedicated service providing direct support to the DTP anticancer drug discovery program and is designed to screen up to 3,000 compounds per year for potential anticancer activity. The operation of this screen utilizes 60 different human tumor cell lines, representing leukemia, melanoma and cancers of the lung, colon, brain, ovary, breast, prostate, and kidney. The aim is to prioritize for farther evaluation, synthetic compounds or natural product samples showing selective growth inhibition or cell killing of particular tumor cell lines. This screen is unique in that the complexity of a 60 cell line dose response produced by a given compound results in a biological response pattern which can be utilized in pattern recognition algorithms (COMPARE program. See: http://dtp.nci.nih.gov/docs/compare/compare.html). Using these algorithms, it is possible to assign a putative mechanism of action to a test compound, or to determine that the response pattern is unique and not similar to that of any of the standard prototype compounds included in the NCI database. […]

For series [2], the system named is Ovarian Cancer cell lines. The series can be described thus: NCI DTP human tumor cell line screen, ovarian cancer panel. It counts as cell-based. Conditions: Ovarian Cancer (6 cell lines).
Source text: as §1

For series [3], the system named is Breast Cancer cell lines. The experiment in a line: NCI DTP human tumor cell line screen, breast cancer panel. The class given is cell-based. Conditions: Breast Cancer (6 cell lines).
Source text: as §1

Series [4] in a line: Non-specific binding to 24-well assay plate without cells. The class given is in vitro ADME. Conditions: single well of a 24-well assay plate without cells, nominal conc. 1.0 μM, single well of 24-well plate without cells. As to the method:
To determine the extent of non-specific binding of the sample to the assay plate, the sample solution was incubated under the conditions described above in a single well of a 24-well assay plate. After 90 minutes, the sample was removed from each well for analysis. After all samples were collected, lucifer yellow solution was added to each monolayer at a final concentration of 100 μM. The inserts were placed in a new receiver plate containing transport buffer. After a 30 min. incubation on an orbital shaker (50 rpm) at 37° C., with ambient humidity and CO2, samples were removed from the receiver chamber to measure percent lucifer yellow flux.
The recovery of Compound A from the apical and basolateral chambers (mass balance) as well as from a single well of a 24-well culture plate without cells (non-specific binding) at the end of the incubation is reported in Table 9.

Series [5] has as its system Melanoma cell lines. The series can be described thus: NCI DTP human tumor cell line screen, melanoma panel. It counts as cell-based. Particulars: Melanoma (8 cell lines).
Source text: as §1

In series [6] the test system is NSCLC cell lines. The experiment in a line: NCI DTP human tumor cell line screen, NSCLC panel. The class given is cell-based. Conditions: NSCLC (8 cell lines).
Source text: as §1

With `C[C@H](Cc1ccc(OCCCN2CCCCC2)c(OCCCN2CCCCC2)c1)[C@@H](C)Cc1ccc(OCCCN2CCCCC2)c(OCCCN2CCCCC2)c1` [Compound A, 1,4-bis{3,4-bis[3-(piperidin-1-yl)propoxy]phenyl}-2,3-dimethyl-(2R,3S)-butane], the “Mean Growth Percent at 10 μM” value in series [1] was −93.97%; in series [2] it was −85.89%; in series [3] it was −67.95%; in series [5], −92.38%; in series [6], −90.92%. This compound gave a recovery at 90 min, 1 μM in series [4] of 13%.
